Test results reported in US12427192B2, “Water soluble adjuvant and composition containing same” (Sumitomo Pharma Co., Ltd., priority 2019, dated 2025).

Columns and labels:
[1] = tested on: HLA-A*02:01 transgenic mouse; assay: Test 6: in vivo adjuvant activity, vaccine c (Peptide SEQ ID No. 6), IFNγ ELISPOT; details: added to vaccine c; 0.4 nmol per body, twice; FIG. 3
Description: Test 6 Evaluation of In Vivo Adjuvant Activity in HLA-A*02:01 Transgenic Mouse
The in vivo adjuvant activity of the compound of Example 1 was evaluated in the following procedure. To a vaccine prepared by mixing Peptide SEQ ID No. 6 prepared in Reference example 6 with Montanide ISA 51 VG (hereinafter, referred to as “vaccine c”) was added the compound prepared in Example 1 to prepare a vaccine. The vaccine was administered to a HLA-A*02:01 transgenic mouse, and the adjuvant activity of the vaccine was evaluated by the method of testing antigen-specific CTL induction. The GLYDGMEHL in Peptide SEQ ID No. 6 corresponds to an antigen peptide derived from an HLA-A*02:01-restricted MAGE-A10 protein.
The character for inducing CTLs specific to the antigen peptide (SEQ ID No. 6) by vaccine c was evaluated by measuring whether IFNγ can be produced upon stimulation of splenocytes from the mouse with the peptide. In addition, the character for exerting in vivo adjuvant activity by the compound in Example 1 was evaluated by comparing the number of CTLs induced by vaccine c and the number of CTLs induced by the vaccine prepared by adding the compound prepared in Example 1 to vaccine c, and checking presence or absence of the increase on the number.
Specifically, Peptide of SEQ ID No. 6 was dissolved in DMSO, and then diluted with water for injection to concentrations of 0.1 mg/mL. […]

[2] = tested on: HLA-A*02:01 transgenic mouse; assay: Test 9: in vivo adjuvant activity, cocktail vaccine b, IFNγ ELISPOT; details: added to cocktail vaccine b; Peptide SEQ ID No. 1 or SEQ ID No. 4; 0.4 nmol per body, twice; FIG. 6 and 7
Description: Evaluation of In Vivo Adjuvant Activity in HLA-A*02:01 Transgenic Mouse
The in vivo adjuvant activity of the compounds prepared in Examples 8, 9, and 10 and the compound prepared in Reference example 12 was evaluated in the following procedure. To cocktail vaccine b comprising Compound of formula 4 prepared in Reference example 8 and Peptide SEQ ID No. 3 prepared in Reference example 3 with Montanide ISA51 VG was added the compound prepared in Example 8, 9, or 10, or the compound prepared in Reference example 12 to prepare each vaccine. The vaccine was administered to a HLA-A*02:01 transgenic mouse, and the adjuvant activity of each vaccine was evaluated by the method of testing antigen-specific CTL induction.
Specifically, Compound of formula 4 and Peptide SEQ ID No. 3 were dissolved in DMSO, and then diluted with water for injection to concentrations of Compound of formula 4 of 3 mg/mL and Peptide SEQ ID No. 3 of 2.25 mg/mL. The diluted peptide solution was mixed and emulsified with an equal volume of Montanide ISA 51 VG to prepare cocktail vaccine b. Cocktail vaccine b was injected to mice intradermally at the tail base area in an amount for administering 300 μg of Compound of formula 4 per body and 225 μg of Peptide SEQ ID No. 3 per body. Or, in the step of preparing cocktail vaccine b, the compound prepared in Example 8, 9, or 10, or the compound prepared in Reference example 12 was added to the diluted peptide solution to prepare a vaccine, and the prepared vaccine was injected to mice intradermally at the tail base area in an amount for administering 300 μg of Compound of formula 4 per body, 225 μg of Peptide SEQ ID No. 3 per body, and 0.4 nmol of the compound prepared in Example 8, 9, or 10, or the compound prepared in Reference example 12 per body. The administrations were done twice, which had one week interval. One week after the final administration, the mice were sacrificed with CO2 gas. Splenocytes were harvested from spleens removed from the mice. Like Test 4, Peptide (SEQ ID No. 1 or SEQ ID No. 4) was added to the splenocyte-containing ELISPOT plate at a final concentration of 10 μg/ml, and the plate was incubated overnight at 37° C. under an atmosphere of 5% CO2 to re-stimulate the peptide in vitro. Then, after removal of the supernatant from the wells, stained spots on the ELISPOT plate were counted.

| SMILES | CTL counts responsive to Peptide SEQ ID No. 6 compared with adding no compound [1] | CTL counts responsive to the peptide compared with adding no compound [2] |
| --- | --- | --- |
| CCCCCNc1nc(N)nc(C)c1Cc1ccc(CN(C)CCOCCOCCOCCOCCO)cc1OC [Example 1, 1-(4-{[2-amino-4-methyl-6-(pentylamino)pyrimidin-5-yl]methyl}-3-methoxyphenyl)-2-methyl-5,8,11,14-tetraoxa-2-azahexadecan-16-ol·trifluoroacetate] | more |  |
| CCCCCNc1nc(N)nc(C)c1Cc1ccc(CNC)cc1OC [Reference example 12, 5-({2-methoxy-4-[(methylamino)methyl]phenyl}methyl)-6-methyl-N^4-pentylpyrimidine-2,4-diamine, reference compound] |  | more |
